Source: US20240101570A1 (AMGEN INC., priority 2020, published 2024)
Like-named read-outs stand apart in the source and are kept apart here.

Legend:
HCT116 MTAP null cells = test: HCT116 MTAP null cell proliferation / viability (CellTiter-Glo, 6 days); format: cell-based; conditions: HCT116-MTAP null, 144 h, read-out: HCT-116 MTAP null IC50
Procedure, shortened: (§1)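 Viability read by CellTiter-Glo after 6-day compound exposure of MTAP-null and wild-type HCT116 cells grown in RPMI 1640 with 10% FBS. Dosing used 1:3 steps from 1 or 10 μM (8-9 points) or 1:2 steps from 10 or 50 μM (22 points); IC50 taken where fitted curve crosses 50% of control.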

HCT116 WT cells = test: HCT116 WT cell proliferation / viability (CellTiter-Glo, 6 days); format: cell-based; conditions: Homo sapiens, HCT-116, 144 h, read-out: HCT-116 WT IC50
Procedure, shortened: as §1

[1] = HCT116 MTAP null cells, 6 days, CellTiter-Glo
[2] = HCT116 WT cells, 6 days, CellTiter-Glo

## C[C@H](c1ncccn1)N(Cc1ccc(C(F)(F)F)cn1)C(=O)c1cc2c3c(c(N)nc2cn1)COC3 [Example 621, 4-amino-N-((1R)-1-(2-pyrimidinyl)ethyl)-N-((5-(trifluoromethyl)-2-pyridinyl)methyl)-1,3-dihydrofuro[3,4-c][1,7]naphthyridine-8-carboxamide]
HCT116 MTAP null cells; [1]
  IC50: 108 nM
HCT116 WT cells; [2]
  IC50: 1.23 µM

## CC(C)N(C(=O)c1ccc2nc(N)c3c(c2c1)CO[C@@H]3C)[C@@H](C)c1ccc(C(F)(F)F)cn1 (single isomer, unassigned) [Example 840]
HCT116 MTAP null cells; [1]
  IC50: 638 nM
HCT116 WT cells; [2]
  IC50: 22.9 µM

## CN(Cc1ccc(S(F)(F)(F)(F)F)cc1)C(=O)c1cc2c(cn1)nc(N)c1cnn(C)c12 [Example 574, 4-amino-N,1-dimethyl-N-(4-(pentafluoro-lambda~6~- sulfanyl)benzyl)-1H-pyrazolo[4,3-c][1,7]naphthyridine-8-carboxamide]
HCT116 MTAP null cells; [1]
  IC50: 25 nM
HCT116 WT cells; [2]
  IC50: 0.878 µM

## C[C@H](c1ccc(C(F)(F)F)cc1)N(C)C(=O)c1cc2c3c(c(N)nc2cc1F)COC3 (single isomer, unassigned) [Example 857]
HCT116 MTAP null cells; [1]
  IC50: 26 nM
HCT116 WT cells; [2]
  IC50: 1.09 µM

## CCN(Cc1ccc(C(F)(F)F)cn1)C(=O)c1cc2c(cc1F)nc(N)c1cnn(C)c12 [Example 554, 4-amino-N-ethyl-7-fluoro-1-methyl-N-((5-(trifluoromethyl)-2-pyridinyl)methyl)-1H-pyrazolo[4,3-c]quinoline-8-carboxamide]
HCT116 MTAP null cells; [1]
  IC50: 8 nM
HCT116 WT cells; [2]
  IC50: 0.181 µM

## C[C@H](c1ccc(S(F)(F)(F)(F)F)cc1)N(C)C(=O)c1cc2c(cn1)nc(N)c1c2cnn1C (single isomer, unassigned) [Example 868]
HCT116 MTAP null cells; [1]
  IC50: 59 nM
HCT116 WT cells; [2]
  IC50: 3.84 µM

## C[C@H]1OCc2c1c(N)nc1ccc(C(=O)N(Cc3ccc(Br)nn3)CC3CC3)cc21 [Example 326, (3R)-4-amino-N-((6-bromo-3-pyridazinyl)methyl)-N-(cyclopropylmethyl)-3-methyl-1,3-dihydrofuro[3,4-c]quinoline-8-carboxamide]
HCT116 MTAP null cells; [1]
  IC50: 19 nM
HCT116 WT cells; [2]
  IC50: 1.28 µM

## Nc1nc2ccc(C(=O)N(Cc3ccc(OC(F)F)nn3)CC3CC3)cc2c2c1COC2 [Example 426, 4-amino-N-(cyclopropylmethyl)-N-((6-(difluoromethoxy)-3-pyridazinyl)methyl)-1,3-dihydrofuro[3,4-c]quinoline-8-carboxamide]
HCT116 MTAP null cells; [1]
  IC50: 96 nM
HCT116 WT cells; [2]
  IC50: 4.22 µM

## CCN(C(=O)c1cc2c3c(c(N)nc2cc1Cl)COC3)C(C)c1ccc(Cl)nc1 (racemic) [Example 737, 4-amino-7-chloro-N-((1R)-1-(6-chloro-3-pyridinyl)ethyl)-N-ethyl-1,3-dihydrofuro[3,4-c]quinoline-8-carboxamide and 4-amino-7-chloro-N-((1S)-1-(6-chloro-3-pyridinyl)ethyl)-N-ethyl-1,3-dihydrofuro[3,4-c]quinoline-8-carboxamide]
HCT116 MTAP null cells; [1]
  IC50: 59 nM
HCT116 WT cells; [2]
  IC50: 2.38 µM

## CC(C)N(C(=O)c1ccc2nc(N)c3c(c2c1)COC3)[C@H](C)c1ccc(C(F)(F)F)cn1 (single isomer, unassigned) [Example 832]
HCT116 MTAP null cells; [1]
  IC50: 454 nM
HCT116 WT cells; [2]
  IC50: 12.6 µM

## CC(c1ncccn1)N(Cc1ccc(C(F)(F)F)cn1)C(=O)c1ccc2nc(N)c3c(cnn3C)c2c1 (racemic) [Example 618, 4-amino-3-methyl-N-((1R)-1-(2-pyrimidinyl)ethyl)-N-((5-(trifluoromethyl)-2-pyridinyl)methyl)-3H-pyrazolo[3,4-c]quinoline-8-carboxamide and 4-amino-3-methyl-N-((1S)-1-(2-pyrimidinyl)ethyl)-N-((5-(trifluoromethyl)-2-pyridinyl)methyl)-3H-pyrazolo[3,4-c]quinoline-8-carboxamide]
HCT116 MTAP null cells; [1]
  IC50: 33 nM
HCT116 WT cells; [2]
  IC50: 0.264 µM

## CN(Cc1ccc(C(F)(F)F)nc1)C(=O)c1cc2c3c(c(N)nc2cn1)COC3 [Example 693, 4-amino-N-methyl-N-((6-(trifluoromethyl)-3-pyridinyl)methyl)-1,3-dihydrofuro[3,4-c][1,7]naphthyridine-8-carboxamide]
HCT116 MTAP null cells; [1]
  IC50: 2020 nM
HCT116 WT cells; [2]
  IC50: > 10 µM

## CC1OCc2c1c(N)nc1ccc(C(=O)N(Cc3ccc(C(F)(F)F)cn3)[C@H]3[C@@H]4COC[C@@H]43)cc21 (stereo partly drawn) [Example 900, 4-amino-N-((1R,5S,6r)-3-oxabicyclo[3.1.0]hexan-6-yl)-3-methyl-N-((5-(trifluoromethyl)pyridin-2-yl)methyl)-1,3-dihydrofuro[3,4-c]quinoline-8-carboxamide]
HCT116 MTAP null cells; [1]
  IC50: 290 nM
HCT116 WT cells; [2]
  IC50: > 10 µM

## Nc1nc2ccc(C(=O)N(Cc3ccc(C(F)(F)F)nn3)CC3CC3)cc2c2c1COC2 [Example 336, 4-amino-N-(cyclopropylmethyl)-N-((6-(trifluoromethyl)-3-pyridazinyl)methyl)-1,3-dihydrofuro[3,4-c]quinoline-8-carboxamide]
HCT116 MTAP null cells; [1]
  IC50: 87 nM
HCT116 WT cells; [2]
  IC50: 2.57 µM

## CC(C)N(C(=O)c1ccc2nc(N)c3c(c2c1)CO[C@@H]3C)[C@H](C)c1ccc(C(F)(F)F)cn1 (single isomer, unassigned) [Example 839]
HCT116 MTAP null cells; [1]
  IC50: 213 nM
HCT116 WT cells; [2]
  IC50: 9.52 µM

## COc1ccc(CN(C(=O)c2ccc3nc(N)c4c(c3c2)COC4)C(C)C)nc1Cl [Example 462, 4-amino-N-((6-chloro-5-methoxy-2-pyridinyl)methyl)-N-(2-propanyl)-1,3-dihydrofuro[3,4-c]quinoline-8-carboxamide]
HCT116 MTAP null cells; [1]
  IC50: 105 nM
HCT116 WT cells; [2]
  IC50: 3.94 µM

## C[C@H](c1ncccn1)N(Cc1ccc(Cl)cn1)C(=O)c1ccc2nc(N)c3c(c2c1)COC3 [Example 439, 4-amino-N-((5-chloro-2-pyridinyl)methyl)-N-((1R)-1-(2-pyrimidinyl)ethyl)-1,3-dihydrofuro[3,4-c]quinoline-8-carboxamide]
HCT116 MTAP null cells; [1]
  IC50: 7 nM
HCT116 WT cells; [2]
  IC50: 0.138 µM

## Cn1cc(N(Cc2ccc(C(F)F)cn2)C(=O)c2cc3c4c(c(N)nc3cn2)COC4)cn1 [Example 691, 4-amino-N-((5-(difluoromethyl)-2-pyridinyl)methyl)-N-(1-methyl-1H-pyrazol-4-yl)-1,3-dihydrofuro[3,4-c][1,7]naphthyridine-8-carboxamide]
HCT116 MTAP null cells; [1]
  IC50: 127 nM
HCT116 WT cells; [2]
  IC50: 3.88 µM

## CN(Cc1ncc(C(F)(F)F)cc1F)C(=O)c1cc2c3c(c(N)nc2cc1F)COC3 [Example 528, 4-amino-7-fluoro-N-((3-fluoro-5-(trifluoromethyl)-2-pyridinyl)methyl)-N-methyl-1,3-dihydrofuro[3,4-c]quinoline-8-carboxamide]
HCT116 MTAP null cells; [1]
  IC50: 111 nM
HCT116 WT cells; [2]
  IC50: 5.42 µM

## CC(C)N(Cc1ccc(C2CC2)nc1)C(=O)c1ccc2nc(N)c3c(c2c1)COC3 [Example 302, 4-amino-N-((6-cyclopropyl-3-pyridinyl)methyl)-N-(2-propanyl)-1,3-dihydrofuro[3,4-c]quinoline-8-carboxamide]
HCT116 MTAP null cells; [1]
  IC50: 900 nM
HCT116 WT cells; [2]
  IC50: 17.3 µM

## CO[C@@H]1COCC[C@H]1N(Cc1ccc(C(F)(F)F)cn1)C(=O)c1ccc2nc(N)c3c(c2c1)COC3C (stereo partly drawn) [Example 902, 4-amino-N-((3S,4R)-3-methoxytetrahydro-2H-pyran-4-yl)-3-methyl-N-((5-(trifluoromethyl)pyridin-2-yl)methyl)-1,3-dihydrofuro[3,4-c]quinoline-8-carboxamide]
HCT116 MTAP null cells; [1]
  IC50: 34 nM
HCT116 WT cells; [2]
  IC50: 0.33 µM

## C[C@H](c1ccc(-c2ccc(S(F)(F)(F)(F)F)cc2)cc1)N(C)C(=O)c1ccc2nc(N)c3cnn(C)c3c2c1 [Example 533, 4-amino-N,1-dimethyl-N-((1R)-1-(4′-(pentafluoro-lambda~6~- sulfanyl)[biphenyl]-4-yl)ethyl)-1H-pyrazolo[4,3-c]quinoline-8-carboxamide]
HCT116 MTAP null cells; [1]
  IC50: 459 nM
HCT116 WT cells; [2]
  IC50: 3.19 µM

## Cc1nn(C)c2c1c(N)nc1cc(F)c(C(=O)N(Cc3ccc(C(F)(F)F)cn3)C(C)C)cc12 [Example 538, 4-amino-7-fluoro-1,3-dimethyl-N-(2-propanyl)-N-((5-(trifluoromethyl)-2-pyridinyl)methyl)-1H-pyrazolo[4,3-c]quinoline-8-carboxamide]
HCT116 MTAP null cells; [1]
  IC50: 40 nM
HCT116 WT cells; [2]
  IC50: 0.735 µM

## Cc1cc2nc(N)c3cnn(C)c3c2cc1C(=O)N(C)Cc1ccc(C(F)(F)F)cn1 [Example 521, 4-amino-N,1,7-trimethyl-N-((5-(trifluoromethyl)-2-pyridinyl)methyl)-1H-pyrazolo[4,3-c]quinoline-8-carboxamide]
HCT116 MTAP null cells; [1]
  IC50: 18 nM
HCT116 WT cells; [2]
  IC50: 0.698 µM

## CC(c1ccc(C(F)(F)F)cn1)N(C)C(=O)c1cc2c3c(c(N)nc2cn1)COC3 (racemic) [Example 709, 4-amino-N-methyl-N-((1R)-1-(5-(trifluoromethyl)-2-pyridinyl)ethyl)-1,3-dihydrofuro[3,4-c][1,7]naphthyridine-8-carboxamide and 4-amino-N-methyl-N-((1S)-1-(5-(trifluoromethyl)-2-pyridinyl)ethyl)-1,3-dihydrofuro[3,4-c][1,7]naphthyridine-8-carboxamide]
HCT116 MTAP null cells; [1]
  IC50: 76 nM
HCT116 WT cells; [2]
  IC50: 4.25 µM

## Nc1nc2cnc(C(=O)N(Cc3ccc(C(F)(F)F)cn3)C3CC3)cc2c2c1COC2 [Example 365, 4-amino-N-cyclopropyl-N-((5-(trifluoromethyl)-2-pyridinyl)methyl)-1,3-dihydrofuro[3,4-c][1,7]naphthyridine-8-carboxamide]
HCT116 MTAP null cells; [1]
  IC50: 76 nM
HCT116 WT cells; [2]
  IC50: 6.5 µM

## CCN(Cc1ccc(C(F)(F)F)cn1)C(=O)c1ccc2nc(N)c3c(c2c1)CO[C@H]3CF (single isomer, unassigned) [Example 596]
HCT116 MTAP null cells; [1]
  IC50: 888 nM
HCT116 WT cells; [2]
  IC50: 37.3 µM

## CC(C)CN(Cc1ccc(C(F)(F)F)cn1)C(=O)c1ccc2nc(N)c3c(c2c1)COC3(C)C [Example 889]
HCT116 MTAP null cells
  IC50: 202 nM
HCT116 WT cells
  IC50: 4.74 µM
